“Also recorded” adds a separate entry of the source. Counter-ions that a name gives are not always drawn. Like-named read-outs stand apart in the source and are kept apart here.
Tests used:
[1] = test system: mouse injected with PBQ; assay: Writhing Assay (PBQ-induced writhing in mice); format: in vivo, Charles River male albino mice; conditions: for ED50: Mus musculus
Excerpt: The Writhing Assay is one of the most widely-used experimental procedures for measuring the analgesic activity of different narcotic and nonnarcotic analgesic agents, and involves the continuous, chemically-induced pain of visceral origin to an animal, such as a mouse or rat. [Gyires et al., Arch., int. Pharmacodyn, 267, 131-140 (1984); C. Vander Wende et al., Fed. Proc., 15, 494 (1956); Koster et al., Fed. Proc., 18, 412 (1959); and Witken et al., J. Pharmacol. exp. Ther., 133, 400-408 (1961).] Chemicals which may be used to induce this pain include phenylbenzoquinone (PBQ) and acetic acid. As a result of the chemical irritation to the animal, a characteristic stretching and writhing of the animal (dorsiflexion of the animal's back, extension of its hindlimbs and the strong contraction of its abdominal musculature) will generally occur. […] Drugs which reduce the number of writhes of the animal appear to restore the normal nociceptive threshold of the animal.
Charles River male albino mice, weighing 20 to 30 grams, were used in this assay.
Thirty minutes after subcutaneous or intragastric administration to ten mice of 30 mg per kilogram of body weight of a compound of the present invention ("test compound"), […] per 10 g of body weight of a 0,025% w/v solution of PBQ was injected intraperitoneally into each mouse. Ten mice which were given saline in place of a test compound of the invention were used as a control group.
Five minutes later, each mouse was individually placed into a glass beaker for observation, and the number of writhes occurring during the following ten-minute period was counted.
A test compound was considered to have produced analgesia in a mouse if, in accordance with the conditions set forth above, and under the test criteria employed for this assay, after the administration of 30 mg per kilogram of body weight of a compound of the present invention to the mouse, the number of writhes elicited by a mouse injected with PBQ was equal to, or less than, one-half the median number of writhes recorded for the saline-treated control group of mice that day, as described by Taber in "Predictive Value of Analgesic Assays in Mice and Rats," Advances in Biochemical Psychopharmacology, 8, 191 (1974).
The standard initial screening dose of a test compound employed in this assay was […] for both routes of administration. If this initial screening dose of the test compound produced analgesia in seven of ten mice, then the effect of additional doses of the test compound on the writhing response was evaluated, and then the ED50 dose was generally calculated. (The slopes of the dose-response curves for all test compounds analyzed were compared as described by Tallarida and Murray, Manual of Pharmacologic Calculations, Page 11 (Springer Verlag, New York, 1981)).

[2] = target: T1, prostaglandin E2-induced contractions of segments of guinea pig ileum (Cavia porcellus, UniProt A0A286XHJ6); assay: Prostaglandin (PGE) Antagonism Assay, guinea pig ileum; format: cell-based; design: key to PGE in guinea pig ileum, activity: Active: the initial concentration used yielded at least a two-fold shift (dose ratio greater than or equal to 2) in the dose response curve for prostaglandin E2
T1 construct: Segments of ileum about 2 cm long were then cut and mounted in a 10-mL tissue bath; from tissue; host or cells: guinea pig ileum segments
T1 sequence (A0A286XHJ6 1-405): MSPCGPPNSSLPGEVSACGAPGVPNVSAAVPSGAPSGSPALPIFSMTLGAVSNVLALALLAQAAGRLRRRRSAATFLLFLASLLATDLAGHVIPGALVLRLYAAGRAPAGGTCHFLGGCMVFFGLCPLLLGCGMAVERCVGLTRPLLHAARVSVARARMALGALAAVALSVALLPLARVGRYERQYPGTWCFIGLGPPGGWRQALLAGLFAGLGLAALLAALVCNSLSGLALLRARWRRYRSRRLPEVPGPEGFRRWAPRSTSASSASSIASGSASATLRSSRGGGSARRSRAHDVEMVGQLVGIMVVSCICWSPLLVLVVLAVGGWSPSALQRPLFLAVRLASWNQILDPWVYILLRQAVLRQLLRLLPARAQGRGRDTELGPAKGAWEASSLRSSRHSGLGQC
Procedure: In order to determine the effectiveness of several of the compounds of the present invention ("test compounds") as prostaglandin E2 antagonists,a prostaglandin antagonism assay was conducted, as described below, to determine the ability of these compounds to inhibit prostaglandin E2 -induced contractions of segments of guinea pig ileum.
Male albino guinea pigs weighing 200 to 500 grams were sacrificed by cervical dislocation. The ilea were then quickly removed from the guinea pigs and placed in a modified Tyrode solution, a solution which is known to those skilled in the art, containing one-half of the usual amount of magnesium ions.
Segments of ileum about 2 cm long were then cut and mounted in a 10-mL tissue bath containing the modified Tyrode solution. The solution was maintained at 37° C. and aerated with a gaseous mixture of 95% oxygen and 5% carbon dioxide. Data for a control prostaglandin E2 dose response curve plotting concentration of prostaglandin E2 versus the intensity of contractions, detected isotonically, was then obtained by experimentally adjusting the dose of the prostaglandin E2 being injected into the tissue bath, in a manner known by those of skill in the art.
solutions or suspensions containing an initial concentration (3 micromolar) of a test compound in modified Tyrode solution ("test solutions/suspensions") were then separately substituted for the control bath solution. Each test solution/suspension was then kept in constant contact with the ileum tissue, except for brief periods to drain the bath in preparation for rinsing with fresh test solution/suspension. A second prostaglandin E2 dose response curve was then generated for prostaglandin E2 in the presence of a test compound.
A dose ratio of EC50 doses was then calculated from the results of each test in a manner known by those of skill in the art. A test compound was determined to be "active" if the initial concentration used yielded at least a two-fold shift (dose ratio greater than or equal to 2) in the dose response curve for prostaglandin E2.

[3] = test system: stimulant actions of prostaglandins on isolated smooth muscle preparations; conditions: literature; cited from earlier work
[4] = test system: urethane-anesthetized rats; conditions: literature; cited from earlier work
[5] = po, intragastric, read-out: Writhing Assay ED50 Dose, I.G.
[6] = sc, subcutaneous, read-out: Writhing Assay ED50 Dose, S.C.
[7] = estimated, assuming Schild slope -1.0, initial concentration 3 micromolar, read-out: PGE in guinea pig ileum, Estimated pA2 value (converted)
[8] = initial concentration 3 micromolar
[9] = Schild plot calculation, varying concentrations, read-out: PGE in guinea pig ileum (pA2) (converted)

Row | Structure (SMILES) | rank order of potency in the Writhing Assay [1] | Kb [2, 7] [nM] | PGE in guinea pig ileum, activity [2, 8] | Kb [2, 9] [nM] | further results
1 | CCS(=O)(=O)CCC(=O)NCC(=O)N1Cc2ccccc2Oc2ccc(Cl)cc21 [Example 1, N-[2-(8-chloro-10,11-dihydrodibenz[b,f][1,4]oxazepin-10-yl)-2-oxoethyl]-3-(ethylsulfonyl) propanamide] | Example 1>Example 2>Example 3>Example 9; also recorded: the most potent compound of the invention tested in this assay | 2000 | Active |  | ED50 [1, 5]: 5.9 mg/kg; ED50 [1, 6]: 11.2 mg/kg
2 | O=C(CCSCc1ccco1)NCC(=O)N1Cc2ccccc2Oc2ccc(Cl)cc21 [Example 2, N-[2-(8-chloro-10,11-dihydrodibenz[b,f][1,4]oxazepin-10-yl)-2-oxoethyl]-3[(2-furanylmethyl)thio]propanamide] | Example 1>Example 2>Example 3>Example 9 |  | Active | 10 | ED50 [1, 5]: 13.5 mg/kg; ED50 [1, 6]: 14.8 mg/kg
3 | O=C(CCc1ccncc1)NCC(=O)N1Cc2ccccc2Oc2ccc(Cl)cc21 [Example 3, N-[2-{8-chloro-10,11-dihydrodibenz[b,f][1,4]oxazepin-10-yl)-2-oxoethyl]-4-pyridinepropanamide, monohydrochloride] | Example 1>Example 2>Example 3>Example 9 | 2000 | Active |  | ED50 [1, 6]: 16.9 mg/kg
4 | O=C(CCSCc1cccs1)NCC(=O)N1Cc2ccccc2Oc2ccc(Cl)cc21 [Example 4, N-[2-(8-chlorodibenz-10-11-dihydrobenz[b,f][1,4]oxazepin-10-yl)-2-oxoethyl]-3-[(2-thenylmethyl)thio]propanamide] |  |  | Active | 12.6 | 
5 | NCCC(=O)NCC(=O)N1Cc2ccccc2Oc2ccc(Cl)cc21 [Example 5, 3-Amino-N-[2-(8-chloro-10,11-dihydrodibenz[b,f][1,4]oxazepin-10-yl)-2-oxoethyl]-propanamide, monohydrochloride] |  |  | Active |  | PGE in guinea pig ileum, Estimated pA2 value ([2]; estimated, assuming Schild slope -1.0, initial concentration 3 micromolar): 5.5
6 | CN(C)CCSCCC(=O)NCC(=O)N1Cc2ccccc2Oc2ccc(Cl)cc21 [Example 6, N-[2-(8-chloro,10,11-dihydrodibenz[b,f][1,4]oxazepin-10-yl)-2-oxoethyl]-3-[[2-(dimethylamino)ethyl]thio]propanamide, monohydrochloride] |  | 1260 | Active |  | 
7 | O=C(CCNCc1cccs1)NCC(=O)N1Cc2ccccc2Oc2ccc(Cl)cc21 [Example 7, N-[2-(8-chloro-10,11-dihydrodibenz[b,f][1,4]oxazepin-10-yl)-2-oxoethyl)-3-[(2-thienylmethyl)amino]propanamide, monohydrochloride] |  |  | Active | 316 | 
8 | CCS(=O)(=O)CCC(=O)CNC(=O)N1Cc2ccccc2Oc2ccc(Cl)cc21 [Example 8, 8-chloro-N-[4-(ethylsulfonyl)-2-oxobutyl]dibenz[b,f][1,4]oxazepin-10(11H)-carboxamide] |  | 2510 | Active |  | 
9 | O=C(CCSCc1ccco1)CNC(=O)N1Cc2ccccc2Oc2ccc(Cl)cc21 [Example 9, 8-chloro-N-[4-[(2-furanylmethyl)thio]-2-oxobutyl]dibenz[b,f][1,4]oxazepin-10(11H]-carboxamide] | Example 1>Example 2>Example 3>Example 9 |  | Active | 63.1 | 
10 | O=C(Cc1ccccc1)NNC(=O)N1Cc2ccccc2Oc2ccc(Cl)cc21 [SC-18637] |  |  |  |  | effect on stimulant actions of prostaglandins on isolated smooth muscle preparations [3]: inhibit the stimulant actions of prostaglandins on isolated smooth muscle preparations
11 | CC(=O)NNC(=O)N1Cc2ccccc2Oc2ccc(Cl)cc21 [SC-19220] |  |  |  |  | effect on stimulant actions of prostaglandins on isolated smooth muscle preparations [3]: inhibit the stimulant actions of prostaglandins on isolated smooth muscle preparations; effect on bladder capacity [4]: increased the bladder capacity; effect on voiding efficiency of micturition [4]: reduced the voiding efficiency of micturition

From patent US5382578A, “Methods for treating convulsions and ischemia with substituted dibenzoxazepine compounds” (G. D. Searle & Co., priority 1993, dated 1995)
